Columns and labels:
[1] = system: Escherichia coli ATCC 25922; experiment: MIC, broth microdilution and checkerboard assay; type: cell-based; settings: ATCC25922, E. coli ATCC 25922, no MBL, alone, read-out: MIC MEM Alone
Experimental: (§1) The Minimum Inhibitory Concentration (MIC) of meropenem BP2 was determined utilizing the broth microdilution assay, as described by the Clinical and Laboratory Standards Institute (CLSI) antimicrobial susceptibility guidelines. The mono-therapeutic effect of each antibiotic and MBLI was evaluated across a panel of MBL-producing Enterobacterales.
(§2) The drug susceptibility profile of meropenem in combination with BP2 was studied using the checkerboard assay. This assay was used to ascertain the effect of two drugs on antimicrobial resistance targeting CRE strains. The assay was performed according to the protocol described previously and was under CLSI antimicrobial susceptibility guidelines. Briefly, twofold dilutions of meropenem with each chelator were made in Cation-adjusted Mueller Hinton Broth (CAMHB) in a 96-well microtiter plate. A 0.5 McFarland-standardized bacterial inoculum was added to each well to obtain a final volume of 100 µL per well. Thereafter, plates were incubated at 37 °C for 18 h under aerobic conditions. The checkerboard assays were performed in triplicate. The MIC was determined as the lowest concentration at which no visible growth was present. The fractional inhibitory concentration index (FICI) was calculated for each combination according to the equation FICI = FICa (MIC of drug A in combination/MIC of drug A alone) + FICb (MIC of drug B in combination/MIC of drug B alone). The FICI was interpreted as follows: synergy, FICI ≤ 0.5; additive 0.5–1; indifference, […] FICI < 4; and antagonism, FICI ≥ 4 [61].

K. pneumoniae NDM [2] = experiment: Time-kill study; type: cell-based; settings: meropenem monotherapy
Experimental: Time-kill studies were performed according to previously published methods, including those described by CLSI document M26-A [62]. Briefly, an overnight culture of K. pneumoniae NDM was diluted to a 0.5 McFarland standard that correlated to approximately […]. The prepared bacterial suspensions were added to 96-well plates containing a fixed dose of 32 mg/L of BP2 and meropenem in concentrations of 0.5, 1 or 2 mg/L. Plates were incubated at 35 °C and 100 rpm shaking. A bacterial control without adding any drugs was included, and a meropenem-only control employing similar conditions. Viability counts were performed at 0, 2, 4, 6, 8, and 24 h by sampling 0.1 mL, diluting as appropriate, and spreading onto Mueller Hinton agar (MHA). These plates were incubated at 35 °C for at least 18 h. Colonies were enumerated as cfu/mL.

[3] = Single-dose pharmacokinetic experiment; type: in vivo; settings: for Time of peak concentration (Cmax) after drug administration: single dose, plasma
Experimental: In order to evaluate BP2’s potential to act synergetically with antibacterial agents such as meropenem in vivo, we next performed a single-dose pharmacokinetic experiment to ensure an appropriate dosing schedule for achieving a safe and therapeutic concentration of BP2 in plasma. […] Constant concentrations were then reached after two hours. A plasma concentration of 1.93 µg/L was obtained with a dose of 10 mg/kg.b.w. This was far below the cytotoxicity concentrations seen in the cell viability assays, advocating for the safe increase in the treatment dose to 100 mg/kg.b.w, which allowed us to reach therapeutic concentrations (Figure 6) in plasma without the possibility of toxicity. In vivo efficacy studies were undertaken to assess the potency of BP2 in a murine infection model. This five-day animal trial was initiated by immune-suppressing the mice with cyclophosphamide to allow the progression of infection and allow BP2 + meropenem treatment to be studied over eight hours on day five of the trial. In addition, it excludes the effects of the innate immune response as a potential variable. This is important since many carbapenem-resistant infections are acquired as secondary infections in immune-suppressed hosts. The mice were successfully infected with Klebsiella pneumoniae NDM, evidenced by visible inflammation of the localized area; this correlated with the cfu/thigh data expressed (Tables S1–S3). Three treatment regimens of S (saline only), M (meropenem only), and BP2 combination therapy (BP2 + meropenem) were used to randomly categorize mice.
A Shimadzu Nexera Series (Shimadzu Corporation, Kyoto, Japan) liquid chromatography system was coupled with Shimadzu LCMS-8050 tandem mass spectrometer (Shimadzu, Kyoto, Japan). […] Quantitative and qualitative studies were conducted using MRM mode via an ESI interface, with the following source parameters: nitrogen nebulizer gas flow 3 L/min; heat gas 10 L/min and interface temperature of 300 °C. […] Results were analyzed using LabSolutions Insight LCMS. All data are expressed as a mean ± SD.

K. pneumoniae NDM [4] = experiment: Murine thigh infection model; type: in vivo, Klebsiella pneumoniae; settings: neutropenic BALB/c mice, 100 mg/kg IP every 2 h
Experimental: A murine thigh infection model described by Michail et al. was performed with minor modifications. Male Bragg inbred albino c-strain (BALB/c) mice weighing 20–25 g (n = 90) were used in this study. Each of the three groups constituted n = 30 mice, with n = 6 mice receiving treatment every two hours. Prior to infection, mice were IP treated with 150 mg/kg cyclophosphamide on day one and 100 mg/kg on day four of the trial. This was performed to induce neutropenia in the mice. Neutropenia was confirmed by a neutrophil count of <100/mm^3. On day five of the trial, 0.1 mL inoculum containing 10^6–10^8 cfu/mL of K. pneumoniae NDM were IM injected into the right thigh of the mice to initiate infection. Meropenem monotherapy, BP2 + meropenem combination therapy, or normal saline was administered every two hours in an eight-hour treatment period. Mice were euthanized by isoflurane overdose at 2 h, 4 h, 6 h and 8 h post dosing. The right thigh muscle was then aseptically removed and homogenized in 5 mL PBS. Homogenates were spread onto Mueller–Hinton agar and MacConkey agar plates, followed by incubation at 35 °C for 24 h and enumeration of the cfu/mL.

[5] = system: Escherichia coli TC CARF (VIM-2); experiment: MIC, broth microdilution and checkerboard assay; type: cell-based; settings: read-out: MIC BP2 Alone
Experimental: as §1, §2

[6] = system: Klebsiella pneumoniae USA 449 (NDM); experiment: MIC, broth microdilution and checkerboard assay; type: cell-based; settings: read-out: MIC BP2 Alone
Experimental: as §1, §2

SMILES | MIC [1] [µg/mL] | Increase in bacteria compared to the BP2 + meropenem-treated group (K. pneumoniae NDM [2]) [log10] | Time of peak concentration (Cmax) after drug administration [3] [min] | Best Log10 Cfu/ml (K. pneumoniae NDM [4]; treatment time 2 h) [Log10 Cfu/ml] | Mean Log10 Cfu/ml (K. pneumoniae NDM [4]; treatment time 2 h) [Log10 Cfu/ml] | Best Log10 Cfu/ml (K. pneumoniae NDM [4]; treatment time 4 h) [Log10 Cfu/ml] | Mean Log10 Cfu/ml (K. pneumoniae NDM [4]; treatment time 4 h) [Log10 Cfu/ml] | Best Log10 Cfu/ml (K. pneumoniae NDM [4]; treatment time 6 h) [Log10 Cfu/ml] | Mean Log10 Cfu/ml (K. pneumoniae NDM [4]; treatment time 6 h) [Log10 Cfu/ml] | Best Log10 Cfu/ml (K. pneumoniae NDM [4]; treatment time 8 h) [Log10 Cfu/ml] | Mean Log10 Cfu/ml (K. pneumoniae NDM [4]; treatment time 8 h) [Log10 Cfu/ml] | MIC [5] [µg/mL] | MIC [6] [µg/mL] | Plasma concentration ([3]; dose of 10 mg/kg.b.w) [ng/mL]
C[C@@H](O)[C@H]1C(=O)N2C(C(=O)O)=C(S[C@@H]3CN[C@H](C(=O)N(C)C)C3)[C@H](C)[C@H]12 [Meropenem] | 0.06 | > 2 | 15 | 7.2 | 6.8 | 8 | 8.3 | 8.3 | 8.4 | 8.3 | 8.2 |  |  | 
CON=C(C(=O)NC1C(=O)N2C(C(=O)O)=C(COC(C)=O)CSC12)c1csc(NC(=O)CC(C(=O)OC)N2CCN(CC(=O)O)CCN(CC(=O)O)CC2)n1 (stereo in doubt) [BP2] |  |  | 15 |  |  |  |  |  |  |  |  | > 256 | > 256 | 1.93

Source: paper PMC10135050, “Neutralizing Carbapenem Resistance by Co-Administering Meropenem with Novel β-Lactam-Metallo-β-Lactamase Inhibitors” (Antibiotics, 2023)
